As a reminder, the IC50 is the midpoint of a concentration-inhibition curve.

The values below come from patent US8492394B2, “(3-aryl-piperazin-1-yl), (2-aryl-morpholin-4-yl) and (2-aryl-thiomorpholin-4-yl) derivatives of 6,7-dialkoxy-quinazoline, 6,7-dialkoxyphtalazine and 6,7-dialkoxyisoquinoline as PDE10A enzyme inhibitors” (H. Lundbeck A/S, priority 2006, dated 2013).

In one test the test system is rats.
Assay: not given
The following applies: cited from earlier work.
In the case of `COc1ccc(Cc2nccc3cc(OC)c(OC)cc23)cc1OC` [Papaverin], the “hyperactivity induced by PCP” value is “reduced hyperactivity”.

In a further test the test system is rats.
Assay: not given
The following applies: alone; cited from earlier work.
On to `COc1ccc(Cc2nccc3cc(OC)c(OC)cc23)cc1OC` [Papaverin], for which the “catalepsy on its own” value was “did not cause catalepsy on its own”.

Still in this test, the particulars now being: with the D2 receptor antagonist haloperidol; cited from earlier work.
Regarding `COc1ccc(Cc2nccc3cc(OC)c(OC)cc23)cc1OC` [Papaverin], the “cataleptic effect of haloperidol” value is listed as “potentiated the cataleptic effect”.

In another test the target is PDE10A enzyme (Homo sapiens (Human), UniProt Q9Y233). The experiment in a line: PDE10A inhibition assay. The following applies: tritium labeled cAMP 5 nM, SPA; read-out: PDE10 IC50. The test is classed as biochemical. The method, then: Active PDE10A enzyme is prepared in a number of ways for use in PDE assays (Loughney, K. et al. Gene 1999, 234, 109-117; Fujishige, K. et al. Eur J. Biochem. 1999, 266, 1118-1127 and Soderling, S. et al. Proc. Natl. Acad. Sci. 1999, 96, 7071-7076). PDE10A can be expressed as full-length proteins or as truncated proteins, as long as they express the catalytic domain. PDE10A can be prepared in different cell types, for example insect cells or E. coli. An example of a method to obtain catalytically active PDE10A is as follows: The catalytic domain of human PDE10A (amino acids 440-779 from the sequence with accession number NP 006652) is amplified from total human brain total RNA by standard RT-PCR and is cloned into the BamH1 and Xho 1 sites of the pET28a vector (Novagen). Expression in coli is performed according to standard protocols. Briefly, the expression plasmids are transformed into the BL21 (DE3) E. coli strain, and 50 mL cultures inoculated with the cells allowed to grow to an OD600 of 0.4-0.6 before protein expression is induced with 0.5 mM IPTG. Following induction, the cells are incubated overnight at room temperature, after which the cells are collected by centrifugation. Cells expressing PDE10A are resuspended in 12 mL (50 mM TRIS-HCl-pH8.0, 1 mM MgCl2 and protease inhibitors). The cells are lysed by sonication, and after all cells are lysed, TritonX100 is added according to Novagen protocols.
PDE10A enzyme, sequence (Q9Y233 716-1055): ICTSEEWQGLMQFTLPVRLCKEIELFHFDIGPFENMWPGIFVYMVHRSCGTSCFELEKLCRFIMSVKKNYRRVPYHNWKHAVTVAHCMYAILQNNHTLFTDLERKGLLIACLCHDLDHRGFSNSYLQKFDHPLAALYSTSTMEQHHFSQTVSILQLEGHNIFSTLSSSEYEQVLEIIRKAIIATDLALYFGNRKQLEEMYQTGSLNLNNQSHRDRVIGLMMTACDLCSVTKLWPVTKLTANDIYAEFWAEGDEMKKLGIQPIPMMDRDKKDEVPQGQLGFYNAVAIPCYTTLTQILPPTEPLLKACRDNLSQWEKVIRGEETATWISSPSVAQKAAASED
PDE10A assays have been described previously (Loughney, K. et al. Gene 1999, 234, 109-117; Fujishige, K. et al. Eur J Biochem. 1999, 266, 1118-1127 and Soderling, S. et al. Proc. Natl. Acad. Sci. 1999, 96, 7071-7076). PDE10A assays could for example can be performed as follows: PDE10A assays are performed in 60 uL samples containing a fixed amount of the relevant PDE enzyme (sufficient to convert 20-25% of the cyclic nucleotide substrate), a buffer (50 mM HEPES7.6; 10 mM MgCl2; 0.02% Tween20), 0.1 mg/ml BSA, 225 pCi of ^3H-labelled cyclic nucleotide substrate, tritium labeled cAMP to a final concentration of 5 nM and varying amounts of inhibitors. Reactions are initiated by addition of the cyclic nucleotide substrate, and reactions are allowed to proceed for one hr at room temperature before being terminated through mixing with 15 uL 8 mg/mL yttrium silicate SPA beads (Amersham). The beads are allowed to settle for one hr in the dark before the plates are counted in a Wallac 1450 Microbeta counter. The measured signal can be converted to activity relative to an uninhibited control (100%) and IC50 values can be calculated using the Xlfit extension to EXCEL.
For `COc1cc2ncnc(N3CCNC(c4cc(OC)c(OC)c(OC)c4)C3)c2cc1OC` (centres unmarked) [Compound 8, 4-[3-(3,4,5-trimethoxyphenyl)-piperazin-1-yl]-6,7-dimethoxy-quinazoline], the IC50 is 0.18 µM.
Still for that read-out and setting: under `COc1cc2ncnc(N3CCNC(c4ccccc4OC)C3)c2cc1OC` (centres unmarked) [Compound 9, 4-[3-(2-methoxyphenyl)-piperazin-1-yl]-6,7-dimethoxy-quinazoline] stands 0.11 µM; under `COc1cc2ncnc(N3CCOC(c4ccccc4Cl)C3)c2cc1OC` (centres unmarked) [Compound 13, 6,7-Dimethoxy-4-(2-(2-chlorophenyl)-morpholin-4-yl)-quinazoline], 0.19 µM; under `COc1cc2ncnc(N3CCSC(c4ccccc4)C3)c2cc1OC` (centres unmarked) [Compound 1, 6,7-Dimethoxy-4-(2-phenyl-thiomorpholin-4-yl)-quinazoline], 0.089 µM.
Consider `COc1cc2ncnc(N3CCN[C@H](c4ccccc4)C3)c2cc1OC` [Compound 6, 6,7-Dimethoxy-4-((R)-3-phenyl-piperazin-1-yl)-quinazoline], for which the IC50 amounted to 0.065 µM.
Take `COc1cc2ncnc(N3CCOC(c4ccc(C(F)(F)F)cc4)C3)c2cc1OC` (centres unmarked) [Compound 12, 6,7-Dimethoxy-4-(2-(4-trifluomethylphenyl)-morpholin-4-yl)-quinazoline]: the IC50 worked out at 0.66 µM.
Still for that read-out and setting: the same measure for `COc1cc2ncnc(N3CCNC(c4cc(Cl)ccc4Cl)C3)c2cc1OC` (centres unmarked) [Compound 16, 4-[3-(2,5-dichlorophenyl)-piperazin-1-yl]-6,7-dimethoxy-quinazoline]: 0.17 µM; for `COc1cc2ncnc(N3CCOC(c4ccc(F)cc4)C3)c2cc1OC` (centres unmarked) [Compound 10, 6,7-Dimethoxy-4-(2-(4-fluorophenyl)-morpholin-4-yl)-quinazoline]: 0.2 µM; for `COc1cc2ncnc(N3CCNC(c4ccc5c(c4)OCO5)C3)c2cc1OC` (centres unmarked) [Compound 15, 4-[3-(3,4-methylenedioxyphenyl)-piperazin-1-yl]-6,7-dimethoxy-quinazoline]: 0.035 µM.
The same measure, in the same setting: the same measure for `COc1cc2ncnc(N3CCOC(c4ccc(Cl)cc4)C3)c2cc1OC` (centres unmarked) [Compound 11, 6,7-Dimethoxy-4-(2-(4-chlorophenyl)-morpholin-4-yl)-quinazoline]: 0.26 µM.
Same read-out and setting: under `COc1cccc([C@@H]2CN(c3ncnc4cc(OC)c(OC)cc34)CCN2)c1` [Compound 4, 6,7-Dimethoxy-4-((R)-3-(3-methoxyphenyl)-piperazin-1-yl)-quinazoline] stands 0.6 µM.
Consider `COc1cccc([C@H]2CN(c3ncnc4cc(OC)c(OC)cc34)CCN2)c1` [Compound 5, 6,7-Dimethoxy-4-((S)-3-(3-methoxyphenyl)-piperazin-1-yl)-quinazoline], for which the 50% inhibitory concentration (IC50) was 0.014 µM.
Take `COc1cc2ncnc(N3CCNC(c4ccc(N(C)C)cc4)C3)c2cc1OC` (centres unmarked) [Compound 14, 4-[3-(4-dimethylaminophenyl)-piperazin-1-yl]-6,7-dimethoxy-quinazoline]: the IC50 is 0.062 µM.
Still for that read-out and setting: under `COc1cccc(C2CN(c3ncnc4cc(OC)c(OC)cc34)CCN2)c1` (centres unmarked) [Compound 2, 6,7-Dimethoxy-4-(3-(3-methoxyphenyl)-piperazin-1-yl)-quinazoline] stands 0.033 µM; under `COc1cc2ncnc(N3CCOC(c4ccc(C)cc4)C3)c2cc1OC` (centres unmarked) [Compound 3, 6,7-Dimethoxy-4-(2-(4-methylphenyl)-morpholin-4-yl)-quinazoline], 0.079 µM.
Regarding `COc1cc2ncnc(N3CCN[C@@H](c4ccccc4)C3)c2cc1OC` [Compound 7, 6,7-Dimethoxy-4-((S)-3-phenyl-piperazin-1-yl)-quinazoline], the IC50 turned out to be 0.09 µM.

Another test has as its system rats.
Assay: not given
The following applies: cited from earlier work. This is another data set of the same source.
On to `COc1ccc(Cc2nccc3cc(OC)c(OC)cc23)cc1OC` [Papaverin], for which the “reduction of amphetamine induced hyperactivity” value is on record as “insignificant”.
